# Laboratory results published in patent US12139498B1, “Positive allosteric modulators of the muscarinic acetylcholine receptor M4” (Vanderbilt University, priority 2023, dated 2024).
# How the values were obtained:
# P450 2D6 = P450 2D6 (Homo sapiens, UniProt P10635); experiment: P450 2D6 inhibition; assay type: in vitro ADME
# Experimental: (§1) Compound 70 was tested in several in in vitro assays to investigate both metabolism and pharmacokinetics. These assays may be performed according to known methods as generally described in the following references: Conde-Ceide et al. ACS Med. Chem. Lett. 2015, 6, 716-720; Morris et al. J. Med. Chem. 2014, 57, 10192-10197; and Bubser et al. ACS Chem. Neurosci. 2014, 5, 920-942.
# P450 3A4 = P450 3A4 (Homo sapiens, UniProt P08684); experiment: P450 3A4 inhibition; assay type: in vitro ADME
# Sequence of P450 3A4 (P08684 whole entry): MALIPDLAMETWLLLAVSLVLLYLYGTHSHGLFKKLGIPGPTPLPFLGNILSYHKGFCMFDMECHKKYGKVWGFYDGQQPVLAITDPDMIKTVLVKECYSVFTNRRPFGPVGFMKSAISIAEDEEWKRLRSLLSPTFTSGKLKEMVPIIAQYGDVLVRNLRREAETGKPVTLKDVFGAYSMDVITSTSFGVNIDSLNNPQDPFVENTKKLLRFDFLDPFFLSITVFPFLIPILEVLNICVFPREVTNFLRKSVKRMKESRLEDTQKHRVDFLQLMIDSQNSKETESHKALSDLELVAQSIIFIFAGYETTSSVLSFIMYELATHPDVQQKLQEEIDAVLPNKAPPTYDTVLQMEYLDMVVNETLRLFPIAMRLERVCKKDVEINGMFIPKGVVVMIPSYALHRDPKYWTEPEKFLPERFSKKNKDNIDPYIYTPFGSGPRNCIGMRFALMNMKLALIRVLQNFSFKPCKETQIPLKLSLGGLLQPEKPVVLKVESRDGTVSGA
# Experimental: as §1
# [1] = system: 68 primary molecular targets; experiment: Eurofins LeadProfilingScreen off-target panel (binding); conditions: 10 μM (binding), all targets except human muscarinic 2
# Experimental: Compound 70 was tested using Eurofins LeadProfilingScreen®, which detects potential off-target activity and determines relative selectivity. The screen includes 68 primary molecular targets, including several CNS targets recommended by the EMEA (European Medicines Evaluation Agency) to evaluate drug dependence potential.
# [2] = In vivo pharmacokinetics in dog
# Experimental: (§2) Compound 70 was tested in several in vivo assays and the pharmacokinetic parameters listed in the following table may be determined from pharmacokinetic studies in rat, dog, or cynomolgus monkey, according to known methods as generally described in the following references: Garrison et al. J. Med. Chem. 2022, 65, 6273-6286; Felts et al. J. Med. Chem 2017, 60, 5072-5085; and Yu et al. J. Med. Chem. 2021, 64, 4709-4729.
# Cyno intrinsic clearance = assay type: in vitro ADME; conditions: cynomolgus monkey
# Experimental: as §1
# [3] = Fraction unbound in cyno plasma; assay type: in vitro ADME; conditions: cynomolgus monkey, read-out: Cyno Fu (plasma)
# Experimental: as §1
# [4] = In vivo pharmacokinetics in cynomolgus monkey; conditions: plasma
# Experimental: as §2
# P450 2C9 = P450 2C9 (Homo sapiens, UniProt P11712); experiment: P450 2C9 inhibition; assay type: in vitro ADME
# Sequence of P450 2C9 (P11712 whole entry): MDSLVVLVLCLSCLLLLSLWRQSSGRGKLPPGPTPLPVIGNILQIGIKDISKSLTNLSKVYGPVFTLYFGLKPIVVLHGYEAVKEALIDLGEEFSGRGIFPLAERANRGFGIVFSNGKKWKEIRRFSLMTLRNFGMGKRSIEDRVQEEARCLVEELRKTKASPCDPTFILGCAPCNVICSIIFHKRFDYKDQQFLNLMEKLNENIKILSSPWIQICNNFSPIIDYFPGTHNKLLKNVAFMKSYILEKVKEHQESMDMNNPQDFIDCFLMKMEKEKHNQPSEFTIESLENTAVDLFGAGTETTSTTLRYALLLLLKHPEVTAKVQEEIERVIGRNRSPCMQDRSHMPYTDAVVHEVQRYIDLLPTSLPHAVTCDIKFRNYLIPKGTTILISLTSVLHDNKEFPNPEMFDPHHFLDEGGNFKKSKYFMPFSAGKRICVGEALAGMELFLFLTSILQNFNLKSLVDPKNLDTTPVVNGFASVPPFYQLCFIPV
# Experimental: as §1
# [5] = Fraction unbound in rat plasma; assay type: in vitro ADME; conditions: read-out: Rat Fu (plasma)
# Experimental: as §1
# Sequence of P450 2D6 (P10635 whole entry): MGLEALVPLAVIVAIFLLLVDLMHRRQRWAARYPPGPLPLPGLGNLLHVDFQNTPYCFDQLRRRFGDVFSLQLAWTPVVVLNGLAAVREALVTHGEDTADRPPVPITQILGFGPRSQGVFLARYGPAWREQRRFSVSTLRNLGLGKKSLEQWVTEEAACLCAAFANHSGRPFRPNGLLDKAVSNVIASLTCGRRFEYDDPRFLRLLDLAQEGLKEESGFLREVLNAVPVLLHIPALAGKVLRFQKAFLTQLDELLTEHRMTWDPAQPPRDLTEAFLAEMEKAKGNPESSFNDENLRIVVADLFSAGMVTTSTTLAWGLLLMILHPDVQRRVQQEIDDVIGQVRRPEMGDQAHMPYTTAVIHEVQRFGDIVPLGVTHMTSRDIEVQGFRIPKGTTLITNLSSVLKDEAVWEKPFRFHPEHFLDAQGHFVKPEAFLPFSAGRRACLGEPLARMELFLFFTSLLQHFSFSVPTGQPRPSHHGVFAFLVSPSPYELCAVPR
compound,measurement,setting,value
"Cc1c(N2CCc3nc(C4(F)CC4)sc3C2)nc2nn(C)c(=O)n2c1C [Compound 70, 7-(2-(1-fluorocyclopropyl)-6,7-dihydrothiazolo[5,4-c]pyridin-5(4H)-yl)-2,5,6-trimethyl-[1,2,4]triazolo[4,3-a]pyrimidin-3(2H)-one]",IC50,P450 2D6,> 30 µM
same,IC50,P450 3A4,> 30 µM
same,inhibition of each target in the LeadProfilingScreen,[1],< 50%
same,Dog oral F (3 mg/kg),[2]; oral 3 mg/kg,83%
same,clearance,"[2]; plasma, read-out: Dog CLp",24.4 mL/min/kg
same,half-life,"[2]; plasma, read-out: Dog Elim. t1/2 (converted)",2.1 h
same,Vd,"[2]; plasma, read-out: Dog Vss",3.1 L/kg
same,CLint scaled,Cyno intrinsic clearance,24 mL/min/kg
same,fraction unbound,[3],0.177
same,clearance,[4]; read-out: Cyno CLp,4.9 mL/min/kg
same,half-life,[4]; read-out: Cyno Elim. t1/2 (converted),4.2 h
same,Vd,[4]; read-out: Cyno Vss,1.4 L/kg
same,IC50,P450 2C9,> 30 µM
same,fraction unbound,[5],0.267
